# Test results as given in publication PMC9588787, “Exploring the In situ pairing of human galectins toward synthetic O-mannosylated core M1 glycopeptides of α-dystroglycan” (Scientific Reports, 2022).
# “Also recorded” adds a separate entry of the source. Where no end group is shown, it is not given here.
# How the values were obtained:
# Gal-1 [1] = test: Glycopeptide microarray lectin binding assay, Gal-1; set-up: species or system human; conditions: compounds immobilised at 20 and/or 200 μM, quadruplets; labelled Gal-1 0.10-32.0 µg/mL, PBS pH 7.4, no reducing agent, ambient air (partially oxidizing)
# Procedure: Following our reported optimized protocol, the binding profile of lectins were investigated using evanescent-field fluorescence-assisted microarray technology to directly monitor the interaction without the wash and dry-up process and rapid exchange of protein solution to evaluate concentration dependence, 0.10–32.0 µg/mL protein. The AO/PC-copolymer microarray slides were deprotected using 2N HCl treatment overnight at rt, rinsed with MilliQ H2O, and dried by centrifugation. Then, test compounds were robotically printed using Arduino-based CNC machine handcrafted robot in quadruplets at two concentrations (20 and 200 µM) in 25 mM AcOH-Pyr (pH 5.0), 0.0025% (w/v) Triton X-100 under constant condition (temperature: 20–25 °C and humidity: 35–45 RH). A 25 µg/mL Cyanin3-keto-BSA (Cy3-keto-BSA) was also printed in the slide as grid. Subsequently, the slide was incubated at 80 °C for 1 h to complete the oxime bond formation. Washed once with Milli-Q H2O and dried by centrifugation at 2,000 rpm for 2 min.
# A silicon rubber sheet with six chambers was attached to the printed slide. Next, slide was pretreated with reaction buffer {Phosphate-Buffered Saline solution (PBS, 1X) [10 mM Na2HPO4, 1.8 mM KH2PO4, 2.7 mM KCl, 137 mM NaCl] pH7.4 containing 0.05% (v/v) Tween-20} for 15 min and dried by centrifugation. The PBS (with or without 10 mM DTT) solutions of galectin were prepared and maintained at a cold ice bath before use. Thereafter, a cover glass was set on each chamber and 12 µL of 0.10 µg/mL lectin solution in reaction buffer was added through the gap of the slide and cover. After 1 h of incubation with the lectin solution at rt in a humidified chamber, the slide was rinsed with washing buffer (reaction buffer with containing 0.05% (v/v) Tween-20) and fluorescence intensity was measured with GlycoStation System. To determine whether additional interactions will be detected at higher lectin concentrations, the reaction buffer solution was carefully removed and replaced with the next lectin test concentration, incubated for 5 min at rt, washed with reaction buffer and then fluorescence intensity was obtained. This step was repeated until all the chosen test concentrations were completed (0.32-, 1.00-, 3.20-, 10.0-, and 32.0 µg/mL).
# Images of slides were captured in the presence of reaction buffer. The fluorescexcelence intensities obtained were analyzed using ArrayVision 8.0 (GE Healthcare). For each spot, background correction was applied to get the net intensity, and the average relative fluorescence unit (RFU) was plotted using Microsoft Excel for Microsoft 365. The lectin specificity was identified from high and low RFU values, the error bars being the standard deviation.
# Gal-4 = test: Glycopeptide microarray lectin binding assay, Gal-4; set-up: species or system human; conditions: compounds immobilised at 20 and/or 200 μM; Gal-4 0.10-32.0 µg/mL, PBS pH 7.4, no reducing agent
# Procedure: (§1) Following our reported optimized protocol, the binding profile of lectins were investigated using evanescent-field fluorescence-assisted microarray technology to directly monitor the interaction without the wash and dry-up process and rapid exchange of protein solution to evaluate concentration dependence, 0.10–32.0 µg/mL protein. The AO/PC-copolymer microarray slides were deprotected using 2N HCl treatment overnight at rt, rinsed with MilliQ H2O, and dried by centrifugation. […]
# (§2) A silicon rubber sheet with six chambers was attached to the printed slide. […] After 1 h of incubation with the lectin solution at rt in a humidified chamber, the slide was rinsed with washing buffer (reaction buffer with containing 0.05% (v/v) Tween-20) and fluorescence intensity was measured with GlycoStation System. To determine whether additional interactions will be detected at higher lectin concentrations, the reaction buffer solution was carefully removed and replaced with the next lectin test concentration, incubated for 5 min at rt, washed with reaction buffer and then fluorescence intensity was obtained. […]
# (§3) Images of slides were captured in the presence of reaction buffer. The fluorescexcelence intensities obtained were analyzed using ArrayVision 8.0 (GE Healthcare). […]
# Gal-9 = test: Glycopeptide microarray lectin binding assay, Gal-9; set-up: species or system human; conditions: compounds immobilised at 20 and/or 200 μM; Gal-9 0.10-32.0 µg/mL, PBS pH 7.4, no reducing agent
# Procedure: as §1, §2, §3
# [2] = test system: laminin-111, -121, -211, and -221 with unlabeled Gal-1; test: Laminin–Gal-1 binding assay (trans-bridging on microarray); set-up: species or system human; conditions: 200 μM immobilised compounds; 0.10-32.0 µg/mL Cy3-laminin–unlabeled Gal-1, 32.0 µg/mL extended 30 min
# Procedure: A 12 µL of premixed Cy3-labeled human recombinant laminin (BroadPharm and Biolamina, respectively) and unlabeled-Gal-1 with final concentration of 0.10 µg/mL was added to the printed test compounds. After 1 h of incubation with the laminin-galectin solution at rt in a humidified chamber, the slide was rinsed with washing buffer and fluorescence intensity was measured with GlycoStation System. To determine whether additional interactions will be detected at higher laminin-Gal-1 concentrations, the reaction buffer solution was carefully removed and replaced with the next test concentration, incubated for 5 min at rt, washed with reaction buffer and then fluorescence intensity was obtained. This step was repeated until all the chosen test concentrations were completed (0.32-, 1.00-, 3.20-, 10.0-, and 32.0 µg/mL). For weak interaction, incubation with 32.0 µg/mL of laminin-Gal-1 solution was extended for 30 min. Slide images were captured and analyzed as described above.
# Gal-1, Gal-4, and Gal-9 = test: Microarray inhibition experiment (methyl-Lac, cellobiose, maltose, acetylated peptide 4); assay type: binding, human; conditions: for Gal-1 interaction with immobilised compound upon addition of methyl-Lac: Gal-1, Fig. 5b, 2.00 µM to 200 mM methyl-Lac; for Effect of soluble inhibitor on galectin binding to immobilised glycopeptides: 10 µg/mL galectin, sugars 2.00 µM to 200 mM, acetylated peptide 4 100 µM to 5.00 mM
# Procedure: After 30 min of incubation with the galectin-inhibitor solution at rt in a humidified chamber, the slide was rinsed with washing buffer and fluorescence intensity was measured with GlycoStation System. […] Slide images were captured and analyzed as described above.
# Gal-3 [3] = test: Glycopeptide microarray lectin binding assay, Gal-3; set-up: species or system human; conditions: compounds immobilised at 20 and/or 200 μM; Gal-3 0.10-32.0 µg/mL, PBS pH 7.4, no reducing agent
# Procedure: as §1, §2, §3
# Gal-1, -3, -4, and -9 = test: Glycopeptide microarray, statements for the galectin test panel as a whole; assay type: binding, human; conditions: compounds immobilised at 20 and/or 200 μM; galectins 0.10-32.0 µg/mL, PBS pH 7.4, no reducing agent
# Procedure: as §1, §2, §3
# Gal-1 [4] = test: 1H-15N HSQC NMR chemical shift perturbation of 15N-labeled Gal-1; assay type: binding, human; conditions: tested concentrations, 0.05 up to 64 equivalents of ligand; 100 µM Gal-1, pH 6.9, 10 mM DTT
# Procedure: ^15N Gal-1 was expressed in Escherichia coli cells BL21(DE3) from pET-GST/TEV-LGVLFQGP-hLGALS1 vector (VectorBuilder, Japan). The component cells were transformed with an expression vector utilizing the heat shock method. After one night of incubation on LB Agar plate (containing 100 μg/mL ampicillin), a colony harboring the expression construct was selected and then inoculated unto 5 mL Luria Broth (LB) with antibiotic overnight at 37 °C with shaking. The bacterial pellet was then resuspended to a fresh 500 mL M9-labeled (^15N-NH4Cl as nitrogen source) medium containing ampicillin. After that, culture was grown at 37 °C for at least 4 h until OD600 = 0.6–1.2. The cells were then induced with 0.5 mM isopropyl-β-D-1-thiogalactopyranoside (IPTG) overnight at 25 °C. Bacteria expressing ^15N Gal-1 was lysed with a sonicator (for 5 min, 25% duty cycle. 5 output control) in buffer containing 50 mM PBS, pH 7.4, 150 mM NaCl, 2 mM DTT. […] Lectin-binding activity was analyzed by 15N-HQSC with methyl-Lac. […]
# The ^15N-labeled Gal-1 was prepared at 100 µM concentration in 20 mM potassium phosphate buffer at pH 6.9, 50 µM EDTA and 10 mM DTT, made up using H2O/D2O (95:5%). […] Raw data were converted using TopSpin 4.1.3 and were analyzed using NMRFAM-Sparky[71]. […] The perturbation pattern of the Gal-1 (PDB ID: 1GZW) was analyzed and visualized by PyMOL 2.5.0 (http://www.pymol.org).
# laminins = conditions: basal lamina; read-out: Kd of Gal-1 binding to poly-LacNAc structures of laminins; cited from earlier work
# Description: In the basal lamina, Gal-1 binds to the poly-LacNAc structures of laminins (Kd≈10^−6 M), to maintain glycan recognizing function of Gal-1 in the ECM[61]. During muscle repair, Gal-1 binds directly to laminin and α7β1 integrin modulating the late myoblast fusion. In addition, Gal-1 can dissociate from laminin and cross-link olfactory neurons, forming ne ...
# Gal-3 [5] = conditions: read-out: Kd of interaction with Gal-3; cited from earlier work
# Description: The glycan-CBP interactions are influenced by not only the type of glycan but also the spatial orientation, carrier scaffold, accessibility, density, and spacing of sugar moieties along the glycoconjugate, to obtain optimum fit within the binding pocket of the receptors[37],[40],[44].
molecule,measurement,setting,value
"5-oxo-hexanoyl-TRGAIIQTPTLGPIQPTRV -NH2 [compound 4, unglycosylated α-DG peptide backbone (…) with ketone linker]","Gal-1 binding, microarray signal intensity (RFU)",Gal-1 [1],binding was observed; also recorded: interact
same,"Gal-4 binding, microarray signal intensity (RFU)",Gal-4,interact
same,"Gal-9 binding, microarray signal intensity (RFU)",Gal-9,interact
same,"Gal-1 trans-bridging of Cy3-laminin to immobilised compound, signal intensity",[2],could anchor laminins
"5-oxo-hexanoyl-TRGAIIQTPTLGPIQPTRV -NH2 [compound 5, mono-core M1 α-DG glycopeptide]","Gal-1 binding, microarray signal intensity (RFU)",Gal-1 [1],did not show significant interaction
same,Gal-1 interaction with immobilised compound upon addition of methyl-Lac,"Gal-1, Gal-4, and Gal-9",enhanced interaction
same,"Gal-1 trans-bridging of Cy3-laminin to immobilised compound, signal intensity",[2],remarkable signal intensities
"5-oxo-hexanoyl-TRGAIIQTPTLGPIQPTRV -NH2 [compound 6, mono-core M1 α-DG glycopeptide]","Gal-1 binding, microarray signal intensity (RFU)",Gal-1 [1],did not show significant interaction
same,Gal-1 interaction with immobilised compound upon addition of methyl-Lac,"Gal-1, Gal-4, and Gal-9",enhanced interaction
same,"Gal-1 trans-bridging of Cy3-laminin to immobilised compound, signal intensity",[2],remarkable signal intensities
"5-oxo-hexanoyl-TRGAIIQTPTLGPIQPTRV -NH2 [compound 11, tris-core M1 α-DG glycopeptide]","Gal-1 binding, microarray signal intensity (RFU)",Gal-1 [1],notable decrease in binding interaction
"5-oxo-hexanoyl-TRGAIIQTPTLGPIQPTRV -NH2 [compound 15, bis-LacNAc core M1 α-DG glycopeptide, consecutive glycosylation sites]","Gal-3 binding, microarray signal intensity (RFU)",Gal-3 [3],stronger affinity
"5-oxo-hexanoyl-TRGAIIQTPTLGPIQPTRV -NH2 [compound 18, tris-LacNAc terminated α-DG glycopeptide]","Gal-3 binding, microarray signal intensity (RFU)",Gal-3 [3],did not result in higher intensity
same,"Binding of the tested galectins (panel statement), microarray signal intensity","Gal-1, -3, -4, and -9",lesser interaction
"5-oxo-hexanoyl-TRGAIIQTPTLGPIQPTRV -NH2 [compound 26, α-DG glycopeptide with heterogeneous glycans: LacNAc core M1 and core M1]","Gal-1 binding, microarray signal intensity (RFU)",Gal-1 [1],bound
same,"Binding of the tested galectins (panel statement), microarray signal intensity","Gal-1, -3, -4, and -9",high interaction
same,Galectin interaction with immobilised compound in the presence of methyl-Lac,"Gal-1, Gal-4, and Gal-9; 200 μM immobilised compounds, 10 µg/mL galectin with 2.00 µM to 200 mM methyl-Lac",significantly reduced interaction
"5-oxo-hexanoyl-TRGAIIQTPTLGPIQPTRV -NH2 [compound 28, α-DG glycopeptide with heterogeneous glycans: sialyl-LacNAc core M1 and LacNAc core M1]","Gal-1 binding, microarray signal intensity (RFU)",Gal-1 [1],bound; also recorded: diminished Gal-1 binding
same,"Gal-4 binding, microarray signal intensity (RFU)",Gal-4,significant reduction in the affinity
same,"Gal-1 trans-bridging of Cy3-laminin to immobilised compound, signal intensity",[2],decrease in the trans-bridging activity
32: acetylated N-terminus unglycosylated α-DG peptide corresponding to 4 (Ac-TRGAIIQTPTLGPIQPTRV) [compound 32],Effect of soluble inhibitor on galectin binding to immobilised glycopeptides,"Gal-1, Gal-4, and Gal-9",minimal effect on the binding
same,Chemical shift perturbation of 15N Gal-1 over the titration,Gal-1 [4],failed to induce any significant deviation in the chemical shift
"O=C[C@H](O)[C@@H](O)[C@H](O[C@@H]1O[C@H](CO)[C@@H](O)[C@H](O)[C@H]1O)[C@H](O)CO [cellobiose, reference compound]",Effect of soluble inhibitor on galectin binding to immobilised glycopeptides,"Gal-1, Gal-4, and Gal-9",minimal effect on the binding
"CO[C@@H]1O[C@H](CO)[C@@H](O[C@@H]2O[C@H](CO)[C@H](O)[C@H](O)[C@H]2O)[C@H](O)[C@H]1O [methyl-Lac, methyl-β-lactoside, reference compound]",Effect of soluble inhibitor on galectin binding to immobilised glycopeptides,"Gal-1, Gal-4, and Gal-9",significantly reduced interaction
same,Chemical shift perturbation of 15N Gal-1 over the titration,Gal-1 [4],shifted the ^1H-^15N HSQC signals corresponding to the residues on S3–L6 regions
Gal-1: prototype homodimeric human galectin,Kd,laminins,~1 µM
"Galβ1,3GalNAcα1-O-Ser/Thr [TF antigen]",Kd,Gal-3 [5],245 µM
